{
  "source": "patent US20180360953A1",
  "about": "(priority 2015, published 2018)",
  "system": "PA-specific Ab responses",
  "parameters": "species or system mice",
  "details": "mouse, in vivo, ip",
  "data": [
    {"smiles": "Cc1c(-c2ccnn2C)cc(C(=O)NCc2ccc(S(C)(=O)=O)cn2)c(=O)n1-c1cccc(C(F)(F)F)c1", "note": "[Alvelestat, alvelestat]", "values": [
      {"measurement": "High affinity PA-specific serum IgG1 and IgA Ab responses", "result": "promotes high affinity Abs"}
    ]}
  ]
}
